# BindingDB's records for doi:10.1021/jm801063n (University of Auckland, 2009)
# Assay: Inhibition of recombinant perforin-mediated lysis of human Jurkat T cells by 51Cr release assay
row,IC50,SMILES
1,> 20 µM,"Cc1cc2c(c(=O)[nH]1)C(=O)O/C2=C\c1ccc[nH]1 [(Z)-1-((1H-Pyrrol-2-yl)methylene)-6-methylfuro[3,4-c]pyridine-3,4(1H,5H)-dione]"
2,4.3 µM,"Cc1cc2c(c(=S)[nH]1)C(=O)O/C2=C\c1cn(C)c2ccccc12 [(Z)-6-Methyl-1-((1-methyl-1H-indol-3-yl)methylene)-4-thioxo-4,5-dihydrofuro[3,4-c]pyridin-3(1H)-one]"
3,> 20 µM,"Cc1cc2c(c(=O)[nH]1)C(=O)N/C2=C\c1ccc(-c2ccccc2)s1 [(Z)-6-Methyl-1-((5-phenylthiophen-2-yl)methylene)-1H-pyrrolo[3,4-c]pyridine-3,4(2H,5H)-dione]"
4,5.1 µM,"COc1ccc2scc(/C=C3\OC(=O)c4c3cc(C)[nH]c4=S)c2c1 [(Z)-1-((5-Methoxybenzo[b]thiophen-3-yl)methylene)-6-methyl-4-thioxo-4,5-dihydrofuro[3,4-c]pyridin-3(1H)-one]"
5,> 20 µM,"Cc1cc2c(c(=O)[nH]1)C(=O)O/C2=C\c1ccc(C)o1 [(Z)-6-Methyl-1-((5-methylfuran-2-yl)methylene)furo[3,4-c]pyridine-3,4(1H,5H)-dione]"
6,3 µM,"COc1cccc2cc(/C=C3\OC(=O)c4c3cc(C)[nH]c4=S)oc12 [(Z)-1-((7-Methoxybenzofuran-2-yl)methylene)-6-methyl-4-thioxo-4,5-dihydrofuro[3,4-c]pyridin-3(1H)-one]"
7,> 20 µM,"Cc1cc2c(c(=S)[nH]1)C(=O)O/C2=C\c1ccc(N(C)C)cc1 [(Z)-1-(4-(Dimethylamino)benzylidene)-6-methyl-4-thioxo-4,5-dihydrofuro[3,4-c]pyridin-3(1H)-one]"
8,5.4 µM,"COc1ccc2cc(/C=C3\OC(=O)c4c3cc(C)[nH]c4=S)sc2c1 [(Z)-1-((6-Methoxybenzo[b]thiophen-2-yl)methylene)-6-methyl-4-thioxo-4,5-dihydrofuro[3,4-c]pyridin-3(1H)-one]"
9,4 µM,"Cc1cc2c(c(=S)[nH]1)C(=O)O/C2=C\c1ccc(-c2ccccc2)o1 [(Z)-6-Methyl-1-((5-phenylfuran-2-yl)methylene)-4-thioxo-4,5-dihydrofuro[3,4-c]pyridin-3(1H)-one]"
10,> 20 µM,"Cc1cc2c(c(=S)[nH]1)C(=O)O/C2=C\c1ccc(-c2ccccc2)cc1 [(Z)-1-(Biphenyl-4-ylmethylene)-6-methyl-4-thioxo-4,5-dihydrofuro[3,4-c]pyridin-3(1H)-one]"
11,5.1 µM,"COc1cc2cc(/C=C3\OC(=O)c4c3cc(C)[nH]c4=S)oc2cc1OCc1ccccc1 [(Z)-1-((6-(Benzyloxy)-5-methoxybenzofuran-2-yl)methylene)-6-methyl-4-thioxo-4,5-dihydrofuro[3,4-c]pyridin-3(1H)-one]"
12,> 20 µM,"Cc1cc2c(c(=S)[nH]1)C(=O)O/C2=C\c1c[nH]c2ccccc12 [(Z)-1-((1H-Indol-3-yl)methylene)-6-methyl-4-thioxo-4,5-dihydrofuro[3,4-c]pyridin-3(1H)-one]"
13,13.1 µM,"COc1ccc2sc(/C=C3\OC(=O)c4c3cc(C)[nH]c4=S)cc2c1 [(Z)-1-((5-Methoxybenzo[b]thiophen-2-yl)methylene)-6-methyl-4-thioxo-4,5-dihydrofuro[3,4-c]pyridin-3(1H)-one]"
14,> 20 µM,"COc1cc2cc(/C=C3\OC(=O)c4c3cc(C)[nH]c4=S)[nH]c2cc1OCc1ccccc1 [(Z)-1-((6-(Benzyloxy)-5-methoxy-1H-indol-2-yl)methylene)-6-methyl-4-thioxo-4,5-dihydrofuro[3,4-c]pyridin-3(1H)-one]"
15,7.2 µM,"COc1ccc2cc(/C=C3\OC(=O)c4c3cc(C)[nH]c4=S)oc2c1 [(Z)-1-((6-Methoxybenzofuran-2-yl)methylene)-6-methyl-4-thioxo-4,5-dihydrofuro[3,4-c]pyridin-3(1H)-one]"
16,9.5 µM,"Cc1cc2c(c(=S)[nH]1)C(=O)O/C2=C\c1cc2ccccc2s1 [(Z)-1-(Benzo[b]thiophen-2-ylmethylene)-6-methyl-4-thioxo-4,5-dihydrofuro[3,4-c]pyridin-3(1H)-one]"
17,7.5 µM,"Cc1cc2c(c(=S)[nH]1)C(=O)O/C2=C\c1csc2ccc(Br)cc12 [(Z)-1-((5-Bromobenzo[b]thiophen-3-yl)methylene)-6-methyl-4-thioxo-4,5-dihydrofuro[3,4-c]pyridin-3(1H)-one]"
18,> 20 µM,"Cc1cc2c(c(=S)[nH]1)C(=O)O/C2=C\c1coc2ccccc12 [(Z)-1-(Benzofuran-3-ylmethylene)-6-methyl-4-thioxo-4,5-dihydrofuro[3,4-c]pyridin-3(1H)-one]"
19,> 20 µM,"Cc1cc2c(c(=O)[nH]1)C(=O)N/C2=C\c1ccc(C)o1 [(Z)-6-Methyl-1-((5-methylfuran-2-yl)methylene)-1H-pyrrolo[3,4-c]pyridine-3,4(2H,5H)-dione]"
20,8.6 µM,"Cc1cc2c(c(=S)[nH]1)C(=O)O/C2=C\c1cccs1 [(Z)-6-Methyl-1-(thiophen-2-ylmethylene)-4-thioxo-4,5-dihydrofuro[3,4-c]pyridin-3(1H)-one]"
21,4.7 µM,"COc1ccc2c(/C=C3\OC(=O)c4c3cc(C)[nH]c4=S)csc2c1 [(Z)-1-((6-Methoxybenzo[b]thiophen-3-yl)methylene)-6-methyl-4-thioxo-4,5-dihydrofuro[3,4-c]pyridin-3(1H)-one]"
22,> 20 µM,"Cc1cc2c(c(=O)[nH]1)C(=O)O/C2=C\c1cn(C)c2ccccc12 [(Z)-6-Methyl-1-((1-methyl-1H-indol-3-yl)methylene)furo[3,4-c]pyridine-3,4(1H,5H)-dione]"
23,> 20 µM,"Cc1cc2c(c(=S)[nH]1)C(=O)O/C2=C\c1csc(-c2ccccc2)c1 [(Z)-6-Methyl-1-((5-phenylthiophen-3-yl)methylene)-4-thioxo-4,5-dihydrofuro[3,4-c]pyridin-3(1H)-one]"
24,> 20 µM,"CSc1ccc(/C=C2\OC(=O)c3c2cc(C)[nH]c3=S)cc1 [(Z)-6-Methyl-1-(4-(methylthio)benzylidene)-4-thioxo-4,5-dihydrofuro[3,4-c]pyridin-3(1H)-one]"
25,> 20 µM,"CC(=O)Nc1ccc(/C=C2\OC(=O)c3c2cc(C)[nH]c3=S)cc1 [(Z)-N-(4-((6-Methyl-3-oxo-4-thioxo-4,5-dihydrofuro[3,4-c]pyridin-1(3H)-ylidene)methyl)phenyl)acetamide]"
26,3.8 µM,"COc1cccc2scc(/C=C3\OC(=O)c4c3cc(C)[nH]c4=S)c12 [(Z)-1-[(4-Methoxy-1-benzothien-3-yl)methylene]-6-methyl-4-thioxo-4,5-dihydrofuro[3,4-c]pyridine-3(1H)-one]"
27,4.4 µM,"Cc1cc2c(c(=S)[nH]1)C(=O)O/C2=C\c1ccco1 [(Z)-1-(Furan-2-ylmethylene)-6-methyl-4-thioxo-4,5-dihydrofuro[3,4-c]pyridin-3(1H)-one]"
28,> 20 µM,"Cc1cc2c(c(=S)[nH]1)C(=O)O/C2=C\c1cc2cc(OCc3ccccc3)ccc2[nH]1 [(Z)-1-((5-(Benzyloxy)-1H-indol-2-yl)methylene)-6-methyl-4-thioxo-4,5-dihydrofuro[3,4-c]pyridin-3(1H)-one]"
29,8.2 µM,"Cc1cc2c(c(=S)[nH]1)C(=O)O/C2=C\c1cc2ccccc2o1 [(Z)-1-(Benzofuran-2-ylmethylene)-6-methyl-4-thioxo-4,5-dihydrofuro[3,4-c]pyridin-3(1H)-one]"
30,> 20 µM,"Cc1cc2c(c(=S)[nH]1)C(=O)O/C2=C\c1ccc(Cl)cc1 [(Z)-1-(4-Chlorobenzylidene)-6-methyl-4-thioxo-4,5-dihydrofuro[3,4-c]pyridin-3(1H)-one]"
